In US9610255B2, “Lycopene and resveratrol dietary supplement” (HSIEHS BIOTECH (SINGAPORE) PTE LTD, priority 2009, dated 2017):

Assays:
[1] = cited from earlier work
[2] = Distribution in the body after oral intake
[3] = human, in vivo, po
[4] = Di Mascio P., 1989; cited from earlier work
prostatic carcinoma = settings: 47,000 participants over 6 years (Giovannucci, E., 1995); cited from earlier work

Row | share of adsorbed compound that goes to the prostate and other internal organs [3] | SMILES | solubility in organic solvents such as ethanol and acetone [1] | solubility in water [1] | main distribution in the body [2] | activity in quenching oxygen-singlet among all carotenoids including β-carotene [4] | lowering of incidence of prostatic carcinoma in the lycopene group (prostatic carcinoma)
1 |  | Oc1ccc(/C=C/c2cc(O)cc(O)c2)cc1 [resveratrol] | soluble | slightly soluble | heart, circulation system, along respiratory tract and skin |  | 
2 | over 90% | CC(C)=CCC/C(C)=C/C=C/C(C)=C/C=C/C(C)=C/C=C/C=C(C)/C=C/C=C(C)/C=C/C=C(\C)CCC=C(C)C [lycopene] |  | water-insoluble |  | highest activity | over 30%
